Reference: PubChem BioAssay (NCI)
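Briefly, cells in 96-well plates were exposed to five compound concentrations for 48 h, and endpoints were estimated by linear interpolation. TGI: total growth inhibition.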

Columns and labels:
Assay in all cases: inhibition of tumour cell growth, NCI panel, 48 h
[1] = test system: MDA-MB-231 breast
[2] = test system: NCI-H226 lung
[3] = test system: LOX IMVI melanoma
[4] = test system: A498 renal
[5] = test system: SK-MEL-28 melanoma
[6] = test system: SK-MEL-2 melanoma
[7] = test system: RXF 393 renal
[8] = test system: K-562 leukemia
[9] = test system: 786-0 renal
[10] = test system: HOP-92 NSCLC
[11] = test system: RPMI-8226 leukemia
[12] = test system: SK-MEL-5 melanoma
[13] = test system: OVCAR-3 ovarian
[14] = test system: HT29 colon
[15] = test system: OVCAR-4 ovarian
[16] = test system: CAKI-1 renal
[17] = test system: PC-3 prostate
[18] = test system: MOLT-4 leukemia
[19] = test system: UACC-257 melanoma
[20] = test system: OVCAR-5 ovarian
[21] = test system: UACC-62 melanoma
[22] = test system: SNB-19 CNS
[23] = test system: HOP-62 NSCLC
[24] = test system: CCRF-CEM leukemia
[25] = test system: T-47D breast
[26] = test system: MCF7 breast
[27] = test system: COLO 205 colon
[28] = test system: ACHN renal
[29] = test system: EKVX NSCLC
[30] = test system: IGROV1 ovarian
[31] = test system: HS 578T breast
[32] = test system: U251 CNS
[33] = test system: M14 melanoma
[34] = test system: MDA-N
[35] = test system: SK-OV-3 ovarian
[36] = test system: DU-145 prostate
[37] = test system: SF-539 CNS
[38] = test system: UO-31 renal
[39] = test system: NCI-H522 lung
[40] = test system: NCI-H460 lung
[41] = test system: KM12 colon
[42] = test system: SR leukemia
[43] = test system: NCI/ADR-RES ovarian
[44] = test system: MDA-MB-435
[45] = test system: SF-268 CNS
[46] = test system: A549 NSCLC
[47] = test system: NCI-H23 lung
[48] = test system: SF-295 CNS
[49] = test system: SW-620 colon
[50] = test system: TK-10 renal
[51] = test system: HCT-116 colon
[52] = test system: MALME-3M melanoma
[53] = test system: HCC-2998 colon
[54] = test system: HL-60(TB) leukemia
[55] = test system: BT-549 breast
[56] = test system: SNB-75 CNS
[57] = test system: HCT-15 colon
[58] = test system: SN12C renal
[59] = test system: OVCAR-8 ovarian

Structure (SMILES): COc1ccc(-c2c3c(cc4cc5c(cc24)OCO5)C(=O)OC3)cc1OC
- TGI [1]: 25.4 µM
- TGI [2]: 12.4 µM
- TGI [3]: 0.0663 µM
- TGI [4]: > 49.6 µM
- TGI [5]: 9.38 µM
- TGI [6]: 4.91 µM
- TGI [7]: 35.8 µM
- TGI [8]: > 36.8 µM
- TGI [9]: 13.9 µM
- TGI [10]: > 23.4 µM
- TGI [11]: 9.98 µM
- TGI [12]: 0.68 µM
- TGI [13]: 18.8 µM
- TGI [14]: 6.55 µM
- TGI [15]: > 100 µM
- TGI [16]: > 63.4 µM
- TGI [17]: 49.7 µM
- TGI [18]: 20.4 µM
- TGI [19]: 5.05 µM
- TGI [20]: > 100 µM
- TGI [21]: 1.84 µM
- TGI [22]: 52 µM
- TGI [23]: 7.16 µM
- TGI [24]: > 52.1 µM
- TGI [25]: 3.46 µM
- TGI [26]: 31.4 µM
- TGI [27]: 11.4 µM
- TGI [28]: > 100 µM
- TGI [29]: > 75.6 µM
- TGI [30]: > 100 µM
- TGI [31]: 68.8 µM
- TGI [32]: 22 µM
- TGI [33]: 1.16 µM
- TGI [34]: 13.3 µM
- TGI [35]: > 62.1 µM
- TGI [36]: > 100 µM
- TGI [37]: 24.6 µM
- TGI [38]: 14.1 µM
- TGI [39]: 5.95 µM
- TGI [40]: 15.9 µM
- TGI [41]: > 36 µM
- TGI [42]: 1.7 µM
- TGI [43]: 22.4 µM
- TGI [44]: 11.5 µM
- TGI [45]: > 48 µM
- TGI [46]: > 100 µM
- TGI [47]: 26.5 µM
- TGI [48]: 0.922 µM
- TGI [49]: 11.7 µM
- TGI [50]: > 100 µM
- TGI [51]: 12.1 µM
- TGI [52]: 2.92 µM
- TGI [53]: 13.9 µM
- TGI [54]: > 31.8 µM
- TGI [55]: 22.3 µM
- TGI [56]: 44.7 µM
- TGI [57]: 18.3 µM
- TGI [58]: > 53.1 µM

Structure (SMILES): CC(O)c1cc2c(s1)C(=O)c1ccsc1C2=O (configuration not stated)
- TGI [1]: 0.624 µM
- TGI [2]: 1.32 µM
- TGI [4]: 2.95 µM
- TGI [5]: 0.0328 µM
- TGI [6]: 0.264 µM
- TGI [7]: 0.56 µM
- TGI [8]: 0.412 µM
- TGI [9]: 2.83 µM
- TGI [10]: 0.967 µM
- TGI [11]: 0.416 µM
- TGI [12]: 0.0198 µM
- TGI [13]: 0.169 µM
- TGI [15]: 0.533 µM
- TGI [16]: 1.96 µM
- TGI [17]: 0.158 µM
- TGI [18]: 0.594 µM
- TGI [19]: 0.0688 µM
- TGI [20]: 0.3 µM
- TGI [21]: 0.0733 µM
- TGI [22]: 0.553 µM
- TGI [23]: 0.283 µM
- TGI [24]: 0.781 µM
- TGI [25]: 1.42 µM
- TGI [26]: 0.32 µM
- TGI [27]: 3.23 µM
- TGI [28]: 0.267 µM
- TGI [59]: 1.01 µM
- TGI [29]: 0.551 µM
- TGI [30]: 1.25 µM
- TGI [31]: 0.566 µM
- TGI [32]: 0.415 µM
- TGI [33]: 0.241 µM
- TGI [34]: 0.0275 µM
- TGI [35]: 5.46 µM
- TGI [36]: 0.0947 µM
- TGI [37]: 0.158 µM
- TGI [38]: 0.413 µM
- TGI [39]: 0.381 µM
- TGI [41]: 1.2 µM
- TGI [42]: 0.392 µM
- TGI [43]: 0.743 µM
- TGI [44]: 0.026 µM
- TGI [45]: 0.679 µM
- TGI [46]: 0.373 µM
- TGI [47]: 0.0304 µM
- TGI [48]: 0.18 µM
- TGI [49]: 0.511 µM
- TGI [50]: 1.32 µM
- TGI [51]: 2.72 µM
- TGI [52]: 0.0449 µM
- TGI [53]: 0.576 µM
- TGI [54]: 0.0791 µM
- TGI [55]: 0.23 µM
- TGI [56]: 0.166 µM
- TGI [57]: 0.118 µM
- TGI [58]: 0.238 µM

Structure (SMILES): CCN(CC)CCC(=O)c1ccc(C)cc1
- TGI [1]: 29 µM
- TGI [2]: 63.6 µM
- TGI [3]: > 100 µM
- TGI [4]: 67.2 µM
- TGI [5]: 29.9 µM
- TGI [7]: 31.1 µM
- TGI [8]: 52.3 µM
- TGI [9]: 34.3 µM
- TGI [10]: 36 µM
- TGI [12]: 25.8 µM
- TGI [13]: 33.1 µM
- TGI [14]: 49.6 µM
- TGI [15]: 50.1 µM
- TGI [17]: > 100 µM
- TGI [18]: 52.2 µM
- TGI [19]: 38.9 µM
- TGI [20]: 31.4 µM
- TGI [21]: > 100 µM
- TGI [22]: > 100 µM
- TGI [23]: > 100 µM
- TGI [24]: 31.2 µM
- TGI [25]: 39.8 µM
- TGI [26]: 17.4 µM
- TGI [27]: 63.1 µM
- TGI [28]: 41 µM
- TGI [59]: > 100 µM
- TGI [29]: 86.8 µM
- TGI [30]: 37.6 µM
- TGI [31]: > 100 µM
- TGI [32]: > 100 µM
- TGI [33]: 35.8 µM
- TGI [34]: 51.6 µM
- TGI [35]: > 100 µM
- TGI [36]: > 100 µM
- TGI [37]: > 100 µM
- TGI [38]: 42 µM
- TGI [39]: 32.7 µM
- TGI [40]: > 100 µM
- TGI [42]: 82.6 µM
- TGI [43]: 65.7 µM
- TGI [44]: 33.6 µM
- TGI [45]: > 100 µM
- TGI [46]: > 100 µM
- TGI [47]: 48.1 µM
- TGI [48]: > 100 µM
- TGI [49]: 36.9 µM
- TGI [51]: 36.8 µM
- TGI [52]: 42.4 µM
- TGI [53]: > 100 µM
- TGI [54]: > 100 µM
- TGI [55]: 37.6 µM
- TGI [56]: > 100 µM
- TGI [57]: 33.6 µM
- TGI [58]: > 100 µM

Structure (SMILES): O=C(c1c(F)c(F)c(F)c(F)c1F)N1CCN(C(=O)c2c(F)c(F)c(F)c(F)c2F)C1=S
- TGI [1]: 14.4 µM
- TGI [2]: 30.8 µM
- TGI [3]: 6.57 µM
- TGI [4]: 32 µM
- TGI [5]: 14.9 µM
- TGI [6]: 7.33 µM
- TGI [7]: 9.27 µM
- TGI [8]: > 100 µM
- TGI [9]: 27.3 µM
- TGI [10]: 12.9 µM
- TGI [11]: > 100 µM
- TGI [12]: 19.6 µM
- TGI [13]: 12 µM
- TGI [14]: 12.9 µM
- TGI [15]: 10.4 µM
- TGI [16]: 6.89 µM
- TGI [17]: 21 µM
- TGI [18]: 11.4 µM
- TGI [19]: 22 µM
- TGI [20]: 29.4 µM
- TGI [21]: 9.33 µM
- TGI [22]: 30.1 µM
- TGI [23]: 29.1 µM
- TGI [24]: > 100 µM
- TGI [25]: 24.2 µM
- TGI [26]: 21.1 µM
- TGI [27]: 18.6 µM
- TGI [28]: 20.3 µM
- TGI [59]: 12.9 µM
- TGI [29]: 32.9 µM
- TGI [30]: 8.96 µM
- TGI [31]: 18.9 µM
- TGI [32]: 22.2 µM
- TGI [33]: 4.02 µM
- TGI [34]: 6.54 µM
- TGI [35]: 21.6 µM
- TGI [36]: 27.2 µM
- TGI [37]: 24 µM
- TGI [38]: 10 µM
- TGI [39]: 1.65 µM
- TGI [40]: 25.6 µM
- TGI [41]: 18.8 µM
- TGI [42]: > 100 µM
- TGI [43]: 32.1 µM
- TGI [44]: 11.9 µM
- TGI [45]: 32.6 µM
- TGI [46]: 29.5 µM
- TGI [47]: 20.1 µM
- TGI [48]: 28.5 µM
- TGI [49]: 3.59 µM
- TGI [50]: 27 µM
- TGI [51]: 7.72 µM
- TGI [52]: 15.8 µM
- TGI [53]: 22.7 µM
- TGI [54]: > 100 µM
- TGI [55]: 27.8 µM
- TGI [56]: 23 µM
- TGI [57]: 6.15 µM
- TGI [58]: 24.5 µM
